Settings: in water

| SMILES | solubility (mole fraction) (293.15 K) | solubility (mole fraction) (298.15 K) | solubility (mole fraction) (303.15 K) | solubility (mole fraction) (308.15 K) | solubility (mole fraction) (313.15 K) | solubility (mole fraction) (318.15 K) |
| --- | --- | --- | --- | --- | --- | --- |
| O=C(O)c1cc(O)c(O)c(O)c1 | 0.00117 | 0.00122 | 0.00128 | 0.00131 | 0.00138 | 0.00143 |
| COc1cc(C=O)ccc1O | 0.000989 | 0.00117 | 0.00151 | 0.00182 | 0.0021 | 0.00239 |
| COc1cc(C(=O)O)cc(OC)c1O | 0.000376 | 0.000522 | 0.000646 | 0.000794 | 0.000915 | 0.00105 |
| O=C(O)c1ccc(O)c(O)c1 | 0.00212 | 0.00223 | 0.00229 | 0.00238 | 0.00244 | 0.00256 |
